According to patent US20080089910A1, “Attenuated Herpes Simplex Virus Type-2, Vectors Thereof and Immunogenic Compositions Thereof” (priority 2004, published 2008):

How the values were obtained:
Assay in all cases: Viral plaque reduction assay, sensitivity to acyclovir
Type in all cases: cell-based, herpes simplex virus type 2
[1] = system: UL24Δ; conditions: Human alphaherpesvirus 2; UL24Δ on Vero cells, plaques after 72 hours; read-out: IC50 (50% inhibitory concentration) of acyclovir
Protocol: (§1) Each of the viruses were plated on Vero cell monolayers in the presence of various concentrations (0-16 μM) of acyclovir. Plaques that formed after 72 hours post infection were counted and the data was used to generate the IC50 of ACV for each virus.
(§2) Plaque reduction assay. Plaque reduction assay was used as described previously (Visalli et al., 2003) with the following modifications. Vero cells were infected with approximately 50 to 100 PFU of virus per well. Acyclovir (ACV) was diluted to the desired concentrations in Dulbecco's Modified Eagle Medium (DMEM) and applied to uninfected Vero monolayers for a thirty minute pre-incubation before the addition of virus. Positive control wells received virus without ACV. Monolayers were incubated for three days at 37° C., fixed, and stained. Plaques were counted, and the data are presented as the mean of at least three independent assays.

[2] = system: HSV-2 186; conditions: Human alphaherpesvirus 2; HSV-2 186 on Vero cells, plaques after 72 hours; read-out: IC50 (50% inhibitory concentration) of acyclovir
Protocol: as §1, §2

[3] = system: UL24R; conditions: Human alphaherpesvirus 2; UL24R on Vero cells, plaques after 72 hours; read-out: IC50 (50% inhibitory concentration) of acyclovir
Protocol: as §1, §2

Measured: IC50

Nc1nc2c(ncn2COCCO)c(=O)[nH]1 [acyclovir]
~3000 nM: all assays above
